Results from patent publication US10166229B2, “Compounds and methods for the treatment of cancer” (The Board of Trustees of the University of Illinois, priority 2005, dated 2019).
pIC50: −log10 of the molar value.

Experiments:
HL-60 cells [1] = assay: Cell death induction IC50 (MTS) in HL-60; format: cell-based, human; details: for IC50: Homo sapiens, HL-60, Table 3, read-out: IC50 (μM) for death induction in HL-60 cells
procaspase-3 [2] = target: T1, procaspase-3 (Homo sapiens (Human), UniProt P42574); assay: In vitro activation of purified procaspase-3 (activation curves, Ac-DEVD-pNA); format: biochemical; details: for EC50: Table 3, read-out: EC50 (μM) for procaspase-3 activation; for Activity (direct activation of purified procaspase-3 in vitro): Table 2
Experimental: Activation curves. […] The plate was read every 2 minutes at 405 nm for 2 hours in a Spectra Max Plus 384 well plate reader. The slope of the linear portion for each well was determined and the fold increase in activation from non-treated control wells was calculated. […]

HL-60 cell line = assay: IC50 of PAC-1 derivatives in HL-60 cell line (Table 5); format: cell-based; details: for Fold better than PAC-1: HL-60 IC50 relative to PAC-1; for pIC50: Homo sapiens, HL-60, Table 5
From the text: The results are indicated in Table 5 (where L- and R-designations refer to structures shown in the AX and BX series above, respectively).

HL-60 cells [3] = assay: Apoptosis induction assay in HL-60 cells, 72 hrs (Table 6); format: cell-based
Experimental: Compounds DX1-DX17 were tested using the HL-60 cell line for the ability to effect apoptosis, and IC50 values were determined. Activity levels of compounds from assays of 72 hrs duration with HL-60 cells are shown in Table 6 and along with structures in FIG. 12.

procaspase-3 [4] = target: T1, procaspase-3; assay: Western blot of in vitro procaspase-3 activation by DX compounds; format: biochemical; details: 50 micromolar compound, about 35 nanomolar procaspase-3, 8 hr
Experimental: Certain compounds were also tested for the ability to effect in vitro activation of procaspase-3.

[5] = tested on: Hs 578t breast cancer cell line; assay: Cell death IC50 (MTS) in Hs 578t; format: cell-based; details: etoposide, 24 hours; read-out: IC50 for inducing death, Hs 578t
PC-12 = assay: Cell death IC50 (MTS) in PC-12; format: cell-based; details: etoposide, 24 hours; read-out: IC50 for inducing death, PC-12
U-937 = assay: Cell death IC50 (MTS) in U-937; format: cell-based; details: etoposide, 24 hours; read-out: IC50 for inducing death, U-937
[6] = tested on: NCI-H226 lung cancer cell line; assay: Cell death IC50 (MTS) in NCI-H226; format: cell-based; details: etoposide, 24 hours; read-out: IC50 for inducing death, NCI-H226
SK-N-SH = assay: Cell death IC50 (MTS) in SK-N-SH; format: cell-based; details: etoposide, 24 hours; read-out: IC50 for inducing death, SK-N-SH
[7] = tested on: UACC-62 melanoma cell line; assay: Cell death IC50 (MTS) in UACC-62; format: cell-based; details: etoposide, 24 hours; read-out: IC50 for inducing death, UACC-62
[8] = tested on: B16-F10 melanoma cell line; assay: Cell death IC50 (MTS) in B16-F10; format: cell-based; details: etoposide, 24 hours; read-out: IC50 for inducing death, B16-F10
[9] = tested on: CRL-1872 melanoma cell line; assay: Cell death IC50 (MTS) in CRL-1872; format: cell-based; details: etoposide, 24 hours; read-out: IC50 for inducing death, CRL-1872

T1 sequence (P42574 whole entry): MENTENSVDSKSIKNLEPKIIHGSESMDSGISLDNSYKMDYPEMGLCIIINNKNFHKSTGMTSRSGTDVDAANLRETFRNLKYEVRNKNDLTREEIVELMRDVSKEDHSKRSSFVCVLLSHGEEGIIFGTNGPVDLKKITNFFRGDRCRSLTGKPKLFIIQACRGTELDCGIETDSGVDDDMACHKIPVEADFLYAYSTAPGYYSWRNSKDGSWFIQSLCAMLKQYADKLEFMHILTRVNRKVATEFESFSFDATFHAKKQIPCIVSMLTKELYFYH

Structure (SMILES) | IC50 (HL-60 cells [1]) [µM] | EC50 (procaspase-3 [2]) [µM] | Fold better than PAC-1 (HL-60 cell line) | pIC50 (HL-60 cell line) | also measured
O=C(CN1CCNCC1)N/N=C/c1ccccc1O | > 100 | > 50 | – | – | –
C/C=N/NC(=O)CN1CCN(Cc2ccccc2)CC1 | > 100 | > 50 | – | – | –
CCOC(=O)CN1CCN(Cc2ccccc2)CC1 | > 100 | > 50 | – | – | –
CCOC(=O)CN1CCNCC1 | > 100 | > 50 | – | – | –
c1ccc(CN2CCN(Cc3ccccc3)CC2)cc1 | > 100 | > 50 | – | – | –
c1ccc(CN2CCNCC2)cc1 [Compound 2] | – | – | – | – | Activity (direct activation of purified procaspase-3 in vitro) (procaspase-3 [2]): Inactive
NNC(=O)CN1CCN(Cc2ccccc2)CC1 [Compound 4] | – | – | – | – | Activity (direct activation of purified procaspase-3 in vitro) (procaspase-3 [2]): Inactive
CN1CCN(CC(=O)N/N=C/c2ccccc2O)CC1 [Compound 6] | – | – | – | – | Activity (direct activation of purified procaspase-3 in vitro) (procaspase-3 [2]): Inactive
O=C(CN1CCN(Cc2ccccc2)CC1)N/N=C/c1ccccc1 [Compound 7] | – | – | – | – | Activity (direct activation of purified procaspase-3 in vitro) (procaspase-3 [2]): Inactive
CC(C)(C)c1cc(/C=N/NC(=O)CN2CCN(Cc3ccccc3)CC2)c(O)c(C(C)(C)C)c1 [Compound L01R06] | – | – | 9.7-fold | 5.25 | –
C=CCc1cccc(/C=N/NC(=O)CN2CCN(Cc3ccc(C(C)(C)C)cc3)CC2)c1O [Compound L02R03] | – | – | 12.6-fold | 5.36 | –
CC(C)(C)c1ccc(CN2CCN(CC(=O)N/N=C/c3cc(C(C)(C)C)cc(C(C)(C)C)c3O)CC2)cc1 [Compound L02R06] | – | – | 8.4-fold | 5.19 | –
CC(C)(C)c1cc(/C=N/NC(=O)CN2CCN(Cc3ccc(CCc4ccccc4)cc3)CC2)c(O)c(C(C)(C)C)c1 [Compound L08R06] | – | – | 10.3-fold | 5.27 | –
C=CCc1cccc(/C=N/NC(=O)CN2CCN(Cc3ccc(OCc4ccccc4)c(OCc4ccccc4)c3)CC2)c1O [Compound L09R03] | – | – | 11.3-fold | 5.32 | –
CC(C)(C)c1cc(/C=N/NC(=O)CN2CCN(Cc3ccc(OCc4ccccc4)c(OCc4ccccc4)c3)CC2)c(O)c(C(C)(C)C)c1 [Compound L09R06] | – | – | 13.1-fold | 5.38 | –
O=C(CN1CCN(Cc2ccc(OCc3ccccc3)c(OCc3ccccc3)c2)CC1)N/N=C/c1c(O)ccc2ccccc12 [Compound L09R08] | – | – | 22.6-fold | 5.62 | –
C=CCc1cccc(/C=N/NC(=O)CN2CCC(Cc3ccccc3)CC2)c1O [DX11] | – | – | – | – | pIC50 (HL-60 cells [3]): 5.49; in vitro activation of procaspase-3 (Western blot) relative to control (procaspase-3 [4]): substantial activity levels
O=C(CN1CCN(Cc2ccccc2)CC1)N/N=C/c1ccccc1O [de-allyl PAC-1] | – | – | – | – | pIC50 (HL-60 cells [3]; Homo sapiens): 5.06
O=C(CN1CCN(Cc2ccccc2)CC1)N/N=C/c1ccccc1 [drawing 26] | > 100 | > 50 | – | – | –
NNC(=O)CN1CCN(Cc2ccccc2)CC1 [drawing 29] | > 100 | > 50 | – | – | –
c1ccc(CN2CCNCC2)cc1 [drawing 33] | > 100 | > 50 | – | – | –
COc1cc([C@@H]2c3cc4c(cc3[C@@H](O[C@@H]3O[C@@H]5CO[C@@H](C)O[C@H]5[C@H](O)[C@H]3O)[C@H]3COC(=O)[C@H]23)OCO4)cc(OC)c1O [etoposide] | – | – | – | – | pIC50 [5]: < 4.30; pIC50 (HL-60 cells [1]; etoposide, 24 hours, read-out: IC50 for inducing death, HL-60): > 6.00; pIC50 (PC-12): > 6.00; pIC50 (U-937): > 6.00; pIC50 [6]: < 4.30; pIC50 (SK-N-SH): > 6.00; pIC50 [7]: < 4.30; pIC50 [8]: < 4.30; pIC50 [9]: < 4.30
